Results as given in patent US20050181376A1, “Antisense modulation of microsomal triglyceride transfer protein expression” (ISIS Pharmaceuticals, Inc., priority 2001, published 2005).
Strand notation (5' to 3'): a small letter for the sugar, then the base; units joined by * are phosphorothioate-linked, units joined directly phosphodiester-linked; [ ] holds rarer units or linkages, { } end groups; capitals alone tell only the bases. e = 2'-O-(2-methoxyethyl) (MOE); [5mC] = 5-methylcytosine; d = 2'-deoxy (DNA)

Key:
[1] = system: human microsomal triglyceride transfer protein mRNA; experiment: Antisense inhibition of human microsomal triglyceride transfer protein mRNA levels, quantitative real-time PCR; details: averages from two experiments
[2] = system: mouse microsomal triglyceride transfer protein mRNA; experiment: Antisense inhibition of mouse microsomal triglyceride transfer protein mRNA levels in primary hepatocytes, quantitative real-time PCR; type: cell-based; design: concentration or dose not given beside the values; details: averages from two experiments
Procedure: Primary mouse hepatocytes were prepared from CD-1 mice purchased from Charles River Labs (Wilmington, Mass.) and were routinely cultured in Hepatocyte Attachment Media (Gibco) supplemented with 10% Fetal Bovine Serum (Gibco/Life Technologies, Gaithersburg, Md.), 250 nM dexamethasone (Sigma), and 10 nM bovine insulin (Sigma). Cells were seeded into 96-well plates (Falcon-Primaria #3872) at a density of 10000 cells/well for use in RT-PCR analysis.
Cells were harvested 16-24 hours after oligonucleotide treatment.
All cytidine residues are 5-methylcytidines. […] Data are averages from two experiments. If present, “N.D.” indicates “no data”.

Substance	% INHIB (inhibition of human microsomal triglyceride transfer protein mRNA levels) [1]	% INHIB (inhibition of mouse microsomal triglyceride transfer protein mRNA levels) [2]
144415 (eG*eT*eG*eG*eT*dT*d[5mC]*d[5mC]*dA*dG*dA*dG*d[5mC]*dT*dT*eA*eA*e[5mC]*eT*eG; antisense) [compound 144415]	0%	
144427 (eT*eA*eA*eG*eG*dT*d[5mC]*dT*dT*d[5mC]*dT*dT*d[5mC]*dA*d[5mC]*e[5mC]*eT*e[5mC]*eA*eT; antisense) [compound 144427]	8%	
144409 (eT*e[5mC]*eA*eT*eA*dT*dT*dG*dA*d[5mC]*d[5mC]*dA*dG*d[5mC]*dA*eA*eT*e[5mC]*e[5mC]*eT; antisense) [compound 144409]	31%	
144430 (e[5mC]*eT*eA*eT*eG*dT*dA*dG*d[5mC]*d[5mC]*dA*dG*dT*dG*dT*eA*eG*eG*e[5mC]*eA; antisense) [compound 144430]	0%	
144444 (eG*eA*eT*eG*eA*dT*dT*d[5mC]*dA*dA*dA*dA*dT*dG*dA*e[5mC]*eG*e[5mC]*eT*eG; antisense) [compound 144444]	32%	
144422 (e[5mC]*e[5mC]*eT*eG*eG*dA*dG*dG*dA*dT*dA*dA*dT*dG*d[5mC]*eT*eG*e[5mC]*eT*eG; antisense) [compound 144422]	37%	
144440 (eA*eA*eT*eA*eT*d[5mC]*dA*d[5mC]*dA*dG*dG*dT*d[5mC]*dA*dG*eT*eT*eT*e[5mC]*eA; antisense) [compound 144440]	40%	
144448 (e[5mC]*e[5mC]*e[5mC]*eG*eT*d[5mC]*dA*dT*dG*d[5mC]*dT*dT*dA*dA*dG*eG*eA*eA*eG*eT) [compound 144448]	49%	
144424 (eA*eG*e[5mC]*eA*eG*dA*dT*dA*d[5mC]*dA*dT*d[5mC]*d[5mC]*dT*dG*eG*eT*eG*eT*e[5mC]; antisense) [compound 144424]	23%	
GTAGCATACTGCATATACCC (antisense eG*eT*eA*eG*e[5mC]*dA*dT*dA*d[5mC]*dT*dG*d[5mC]*dA*dT*dA*eT*eA*e[5mC]*e[5mC]*e[5mC]) [ISIS 144443]	at least 30%	
ATGTGCCTTCTACCTTAAGG (antisense eA*eT*eG*eT*eG*d[5mC]*d[5mC]*dT*dT*d[5mC]*dT*dA*d[5mC]*d[5mC]*dT*eT*eA*eA*eG*eG) [ISIS 144449]	at least 30%	
144438 (eG*e[5mC]*eT*eT*e[5mC]*dA*dT*d[5mC]*d[5mC]*dT*dT*dG*dT*d[5mC]*d[5mC]*eA*eT*e[5mC]*eT*eG; antisense) [compound 144438]	53%	
CCCGTCATGCTTAAGGAAGT (antisense e[5mC]*e[5mC]*e[5mC]*eG*eT*d[5mC]*dA*dT*dG*d[5mC]*dT*dT*dA*dA*dG*eG*eA*eA*eG*eT) [ISIS 144448]	at least 30%	
144410 (e[5mC]*e[5mC]*eA*eG*eT*dT*dG*dT*dG*dT*dG*dA*d[5mC]*d[5mC]*dT*eT*eT*eA*eA*e[5mC]; antisense) [compound 144410]	38%	
144446 (eG*eA*eG*eA*eA*dT*dA*dA*d[5mC]*dT*dA*dT*dT*d[5mC]*dT*eG*eA*e[5mC]*eT*eG; antisense) [compound 144446]	28%	
144433 (eA*eT*eT*eA*eA*dG*dG*d[5mC]*dT*dT*d[5mC]*d[5mC]*dA*dG*dT*e[5mC]*e[5mC]*eT*eT*eG; antisense) [compound 144433]	0%	
144435 (eG*eA*eT*eA*e[5mC]*d[5mC]*dA*d[5mC]*dA*dA*dG*d[5mC]*dT*dA*dA*eA*e[5mC]*eT*e[5mC]*e[5mC]; antisense) [compound 144435]	0%	
144432 (eT*eA*e[5mC]*e[5mC]*eG*dT*dG*dA*dA*dG*dA*d[5mC]*d[5mC]*dA*dG*e[5mC]*e[5mC]*eT*eT*e[5mC]; antisense) [compound 144432]	0%	
144408 (eT*e[5mC]*eA*eA*e[5mC]*dT*dG*d[5mC]*dA*dT*d[5mC]*d[5mC]*dA*dG*dT*eG*e[5mC]*e[5mC]*e[5mC]*eA; antisense) [compound 144408]	30%	

Substance	% INHIB (inhibition of human microsomal triglyceride transfer protein mRNA levels) [1]	% INHIB (inhibition of mouse microsomal triglyceride transfer protein mRNA levels) [2]
144437 (eG*eT*eA*e[5mC]*eT*dG*dG*dT*dT*dT*d[5mC]*d[5mC]*dA*dG*dG*e[5mC]*e[5mC]*eA*eG*e[5mC]; antisense) [compound 144437]	32%	
144420 (eG*eA*eG*eG*eT*dG*dA*d[5mC]*dA*dG*d[5mC]*dA*dT*d[5mC]*d[5mC]*eA*e[5mC]*e[5mC]*eA*eG; antisense) [compound 144420]	21%	
144413 (eG*eA*eT*eT*e[5mC]*d[5mC]*dT*d[5mC]*d[5mC]*dA*dT*dA*dG*dT*dA*eA*eG*eG*e[5mC]*e[5mC]; antisense) [compound 144413]	91%	
144428 (eG*e[5mC]*eA*eG*e[5mC]*dT*dG*d[5mC]*dA*dG*d[5mC]*dA*dG*dT*dG*e[5mC]*eG*e[5mC]*eA*e[5mC]; antisense) [compound 144428]	19%	
144429 (e[5mC]*eT*eT*eG*eA*d[5mC]*dG*dT*d[5mC]*d[5mC]*dA*dT*dG*dT*dA*eG*eG*eA*eT*eG; antisense) [compound 144429]	0%	
144417 (eG*e[5mC]*eT*eG*e[5mC]*dA*dG*d[5mC]*d[5mC]*dT*dG*d[5mC]*dT*dT*dT*e[5mC]*e[5mC]*eA*eG*eA; antisense) [compound 144417]	9%	
144414 (eG*eA*eT*eT*eA*dG*dA*dT*dG*dA*dA*dG*dG*dA*dG*e[5mC]*eG*eT*eA*eG; antisense) [compound 144414]	0%	
TTCCAGTGCTCCGCCAGAGA (all phosphorothioate, sugars by position and methylation of C not given here; 2'-MOE wings and deoxy gap) [ISIS 144481, 2′-MOE gapmer phosphorothioate antisense oligonucleotide to mouse MTP]		at least 30%
CAGCCTCAGCATACTTCAGA (all phosphorothioate, sugars by position and methylation of C not given here; 2'-MOE wings and deoxy gap) [ISIS 144488, 2′-MOE gapmer phosphorothioate antisense oligonucleotide to mouse MTP]		at least 30%
CAGAATGCCAGAGCCAGAGT (all phosphorothioate, sugars by position and methylation of C not given here; 2'-MOE wings and deoxy gap) [ISIS 144495, 2′-MOE gapmer phosphorothioate antisense oligonucleotide to mouse MTP]		at least 30%
144480 (eG*e[5mC]*eT*e[5mC]*eG*dA*dG*dG*dA*d[5mC]*d[5mC]*dT*dG*dT*d[5mC]*e[5mC]*e[5mC]*eA*e[5mC]*eA; antisense) [compound 144480]		51%
144473 (eG*e[5mC]*e[5mC]*eT*e[5mC]*d[5mC]*dA*dG*dG*dT*dT*dG*dT*d[5mC]*d[5mC]*eT*eT*e[5mC]*e[5mC]*e[5mC]; antisense) [compound 144473]		1%
144485 (e[5mC]*eT*e[5mC]*eT*eG*dA*dT*dG*dT*d[5mC]*dG*dT*dT*dG*d[5mC]*eT*eT*eG*e[5mC]*eA; antisense) [compound 144485]		50%
144475 (eT*eG*eG*eA*eA*dT*dA*dA*dG*d[5mC]*dT*dA*dG*d[5mC]*d[5mC]*eA*eA*eG*e[5mC]*e[5mC]; antisense) [compound 144475]		18%
144488 (e[5mC]*eA*eG*e[5mC]*e[5mC]*dT*d[5mC]*dA*dG*d[5mC]*dA*dT*dA*d[5mC]*dT*eT*e[5mC]*eA*eG*eA; antisense) [compound 144488]		35%
144478 (e[5mC]*e[5mC]*e[5mC]*eT*eG*dG*dT*d[5mC]*dT*d[5mC]*dT*dT*d[5mC]*dT*dG*e[5mC]*eA*eA*eG*e[5mC]; antisense) [compound 144478]		41%
144474 (eT*eA*eG*eA*eA*d[5mC]*dT*d[5mC]*d[5mC]*dT*dT*dG*dA*d[5mC]*d[5mC]*eT*eT*e[5mC]*e[5mC]*e[5mC]; antisense) [compound 144474]		16%
144509 (eA*e[5mC]*eT*eG*eT*dG*d[5mC]*dT*d[5mC]*dT*d[5mC]*dA*dG*dA*dG*eA*eG*e[5mC]*eA*eA; antisense) [compound 144509]		0%
CTCTGATGTCGTTGCTTGCA (all phosphorothioate, sugars by position and methylation of C not given here; 2'-MOE wings and deoxy gap) [ISIS 144485, 2′-MOE gapmer phosphorothioate antisense oligonucleotide to mouse MTP]		at least 30%
